Assay results reported in patent publication US7326703B2, “(1,10B-Dihydro-2-(aminocarbonyl-phenyl)-5H-pyrazolo[1,5-c][1,3]benzoxazin-5-yl)phenyl methanone derivatives as HIV viral replication inhibitors” (priority 2004, dated 2008).
Read-outs that look alike come from different tables or passages of the source.

Legend:
HIV-1-MDR = assay: Cellular anti-viral assay in MT4-LTR-EGFP cells, multi-drug resistant HIV-1 virus; type: cell-based; settings: Human immunodeficiency virus 1, 72 h, read-out: Activity class for HIV-1-MDR test
Procedure: (§1) The compounds were tested in a cellular assay using the MT4-LTR-EGFP cells for anti-viral activity. […] The cellular assay was performed according to the following procedure.
(§2) HIV- or mock-infected MT4-LTR-EGFP cells were incubated for three days in the presence of various concentrations of the inhibitor. Upon infection, the GFP reporter is activated by the viral tat protein. At the end of the incubation period, the GFP signal was measured. In the virus control samples (in the absence of any inhibitor) the maximal fluorescent signal was obtained. The inhibitory activity of the compound was monitored on the virus-infected cells and was expressed as EC50 and EC90. These values represent the amount of the compound required to protect 50% and 90%, respectively, of the cells from virus infection. The toxicity of the compound was measured on the mock-infected cells and was expressed as CC50, which represents the concentration of compound required to inhibit the growth of the cells by 50%. The selectivity index (SI) (ratio CC50/EC50) is an indication of the selectivity of the anti-HIV activity of the inhibitor.

HIV-1 strain LAI = assay: Cellular anti-viral assay in MT4-LTR-EGFP cells, wild type HIV-1 strain LAI; type: cell-based; settings: Human immunodeficiency virus 1, 72 h, read-out: Activity class for HIV-1-LAI test
Procedure: as §1, §2

[1] = MT4-LTR-EGFP cells, three days incubation, GFP signal, average EC50 used where more than one run

SMILES	EC50 (HIV-1-MDR)	EC50 (HIV-1 strain LAI; [1])	EC50 (HIV-1 strain LAI)
O=C(NCCN1CCCC1)c1ccc(C2=NN3C(C(=O)c4ccc(F)cc4)Oc4ccccc4C3C2)cc1 (centres unmarked) [Compound 40]	> 10 µM	1000 to 10000 nM	
CN(C)CCN(C)C(=O)c1ccc(C2=NN3C(C(=O)c4ccc(F)cc4)Oc4ccccc4C3C2)cc1 (centres unmarked) [Compound 39]	1 to 10 µM	< 1000 nM	
CCc1ccc(C(=O)C2Oc3ccccc3C3CC(c4ccc(C(=O)NC5CCCC5)cc4)=NN23)cc1 (centres unmarked) [Compound 47]	< 1 µM	< 1000 nM	
O=C(NC1CCCC1)c1ccc(C2=NN3C(C(=O)c4ccc([N+](=O)[O-])cc4)Oc4ccccc4C3C2)cc1 (centres unmarked) [Compound 52]	< 1 µM	< 1000 nM	
O=C(NC1CCCC1)c1ccc(C2=NN3C(C(=O)c4ccc(N5CCCCC5)cc4)Oc4ccccc4C3C2)cc1 (centres unmarked) [Compound 49]		> 10000 nM	
O=C(NCc1ccco1)c1ccc(C2=NN3C(C(=O)c4ccc(F)cc4)Oc4ccccc4C3C2)cc1 (centres unmarked) [Compound 31]	1 to 10 µM	1000 to 10000 nM	
O=C(NCc1ccccn1)c1ccc(C2=NN3C(C(=O)c4ccc(F)cc4)Oc4ccccc4C3C2)cc1 (centres unmarked) [Compound 16]	> 10 µM	> 10000 nM	
O=C(NC1CCCC1)c1ccc(C2=NN3C(C(=O)c4ccc(F)cc4)Oc4ccccc4C3C2)cc1 (centres unmarked) [Compound 18]		< 1000 nM	
O=C(NCc1cccs1)c1ccc(C2=NN3C(C(=O)c4ccc(F)cc4)Oc4ccccc4C3C2)cc1 (centres unmarked) [Compound 30]	> 10 µM	> 10000 nM	
CN(C)c1ccc(NC(=O)c2ccc(C3=NN4C(C(=O)c5ccc(F)cc5)Oc5ccccc5C4C3)cc2)cc1 (centres unmarked) [Compound 27]	< 1 µM	< 1000 nM	
CN1CCN(C(=O)c2ccc(C3=NN4C(C(=O)c5ccc(F)cc5)Oc5ccccc5C4C3)cc2)CC1 (centres unmarked) [Compound 35]	> 10 µM	< 1000 nM	
CC(C)(C)OC(=O)N1CCN(C(=O)c2ccc(C3=NN4C(C(=O)c5ccc(F)cc5)Oc5ccccc5C4C3)cc2)CC1 (centres unmarked) [Compound 14]	> 10 µM	> 10000 nM	
O=C(NCCc1ccccn1)c1ccc(C2=NN3C(C(=O)c4ccc(F)cc4)Oc4ccccc4C3C2)cc1 (centres unmarked) [Compound 19]	> 10 µM	1000 to 10000 nM	
COc1cccc(CNC(=O)c2ccc(C3=NN4C(C(=O)c5ccc(F)cc5)Oc5ccccc5C4C3)cc2)c1 (centres unmarked) [Compound 24]	1 to 10 µM	1000 to 10000 nM	
CN(C)CCCNC(=O)c1ccc(C2=NN3C(C(=O)c4ccc(Br)cc4)Oc4ccccc4C3C2)cc1 (centres unmarked) [Compound 9]	> 10 µM	< 1000 nM	
COc1ccc(OC)c(CNC(=O)c2ccc(C3=NN4C(C(=O)c5ccc(F)cc5)Oc5ccccc5C4C3)cc2)c1 (centres unmarked) [Compound 25]	1 to 10 µM	1000 to 10000 nM	
CC(C)(C)NCCNC(=O)c1ccc(C2=NN3C(C(=O)c4ccc(F)cc4)Oc4ccccc4C3C2)cc1 (centres unmarked) [Compound 41]	> 10 µM	1000 to 10000 nM	
O=C(c1ccc(F)cc1)C1Oc2ccccc2C2CC(c3ccc(C(=O)N4CCN(Cc5ccccc5)CC4)cc3)=NN12 (centres unmarked) [Compound 15]	> 10 µM	> 10000 nM	
CCN(CC)CCNC(=O)c1ccc(C2=NN3C(C(=O)c4ccc(F)cc4)Oc4ccccc4C3C2)cc1 (centres unmarked) [Compound 42]	> 10 µM	1000 to 10000 nM	
O=C(c1ccc(F)cc1)C1Oc2ccccc2C2CC(c3ccc(C(=O)N4CCCCCC4)cc3)=NN12 (centres unmarked) [Compound 17]	> 10 µM	< 1000 nM	
CN1CCN(C(=O)c2ccc(C3=NN4C(C(=O)c5ccc(Br)cc5)Oc5ccccc5C4C3)cc2)CC1 (centres unmarked) [Compound 8]	> 10 µM		
O=C(NCc1ccccn1)c1ccc(C2=NN3C(C(=O)c4ccc(Br)cc4)Oc4ccccc4C3C2)cc1 (centres unmarked) [Compound 4]		1000 to 10000 nM	
O=C(c1ccc(F)cc1)C1Oc2ccccc2C2CC(c3ccc(C(=O)N4CCc5ccccc5C4)cc3)=NN12 (centres unmarked) [Compound 11]	> 10 µM	> 10000 nM	
O=C(NC1CCCC1)c1ccc(C2=NN3C(C(=O)c4cccc(Br)c4)Oc4ccccc4C3C2)cc1 (centres unmarked) [Compound 58]	< 1 µM	< 1000 nM	
CC(C)(C)c1ccc(C(=O)C2Oc3ccccc3C3CC(c4ccc(C(=O)NC5CCCC5)cc4)=NN23)cc1 (centres unmarked) [Compound 50]	< 1 µM	< 1000 nM	
O=C(NCC1CCCO1)c1ccc(C2=NN3C(C(=O)c4ccc(F)cc4)Oc4ccccc4C3C2)cc1 (centres unmarked) [Compound 12]	> 10 µM	1000 to 10000 nM	
CC(C)NC(=O)c1ccc(C2=NN3C(C(=O)c4ccc(F)cc4)Oc4ccccc4C3C2)cc1 (centres unmarked) [Compound 33]	< 1 µM	< 1000 nM	
CN(C)CCNC(=O)c1ccc(C2=NN3C(C(=O)c4ccc(F)cc4)Oc4ccccc4C3C2)cc1 (centres unmarked) [Compound 13]	> 10 µM	1000 to 10000 nM	

SMILES	EC50 (HIV-1-MDR)	EC50 (HIV-1 strain LAI; [1])	EC50 (HIV-1 strain LAI)
CN(C)CCN(Cc1ccccc1)C(=O)c1ccc(C2=NN3C(C(=O)c4ccc(F)cc4)Oc4ccccc4C3C2)cc1 (centres unmarked) [Compound 43]	> 10 µM	1000 to 10000 nM	
O=C(Nc1cccnc1)c1ccc(C2=NN3C(C(=O)c4ccc(F)cc4)Oc4ccccc4C3C2)cc1 (centres unmarked) [Compound 29]	< 1 µM	1000 to 10000 nM	
CS(=O)(=O)c1ccc(C(=O)C2Oc3ccccc3C3CC(c4ccc(C(=O)NC5CCCC5)cc4)=NN23)cc1 (centres unmarked) [Compound 53]	< 1 µM	< 1000 nM	
O=C(NC1CCCC1)c1ccc(C2=NN3C(C(=O)c4ccc(C5CCCCC5)cc4)Oc4ccccc4C3C2)cc1 (centres unmarked) [Compound 54]	1 to 10 µM	1000 to 10000 nM	
COc1ccc(C(=O)C2Oc3ccccc3C3CC(c4ccc(C(=O)NC5CCCC5)cc4)=NN23)cc1 (centres unmarked) [Compound 51]	< 1 µM		
O=C(NC1CCC1)c1ccc(C2=NN3C(C(=O)c4ccc(F)cc4)Oc4ccccc4C3C2)cc1 (centres unmarked) [Compound 38]	1 to 10 µM	< 1000 nM	
O=C(NCCc1ccccn1)c1ccc(C2=NN3C(C(=O)c4ccc(Br)cc4)Oc4ccccc4C3C2)cc1 (centres unmarked) [Compound 7]	> 10 µM	1000 to 10000 nM	
CN1CCC(NC(=O)c2ccc(C3=NN4C(C(=O)c5ccc(F)cc5)Oc5ccccc5C4C3)cc2)CC1 (centres unmarked) [Compound 34]	> 10 µM	1000 to 10000 nM	
COc1ccc(NC(=O)c2ccc(C3=NN4C(C(=O)c5ccc(F)cc5)Oc5ccccc5C4C3)cc2)cc1 (centres unmarked) [Compound 26]	1 to 10 µM	1000 to 10000 nM	
O=C(NC1CCCC1)c1ccc(C2=NN3C(C(=O)c4ccc(N5CCOCC5)cc4)Oc4ccccc4C3C2)cc1 (centres unmarked) [Compound 48]	1 to 10 µM	1000 to 10000 nM	
COc1ccc(CNC(=O)c2ccc(C3=NN4C(C(=O)c5ccc(Br)cc5)Oc5ccccc5C4C3)cc2)cc1 (centres unmarked) [Compound 5]	> 10 µM	< 1000 nM	
CCNC(=O)c1ccc(C2=NN3C(C(=O)c4ccc(F)cc4)Oc4ccccc4C3C2)cc1 (centres unmarked) [Compound 32]	1 to 10 µM	> 10000 nM	
CSc1ccc(C(=O)C2Oc3ccccc3C3CC(c4ccc(C(=O)NC5CCCC5)cc4)=NN23)cc1 (centres unmarked) [Compound 46]	< 1 µM	< 1000 nM	
CN(C(=O)c1ccc(C2=NN3C(C(=O)c4ccc(F)cc4)Oc4ccccc4C3C2)cc1)C1CCCCC1 (centres unmarked) [Compound 36]		< 1000 nM	
CN(C)CCCNC(=O)c1ccc(C2=NN3C(C(=O)c4ccc(F)cc4)Oc4ccccc4C3C2)cc1 (centres unmarked) [Compound 3]	> 10 µM	> 10000 nM	
COc1ccccc1CNC(=O)c1ccc(C2=NN3C(C(=O)c4ccc(F)cc4)Oc4ccccc4C3C2)cc1 (centres unmarked) [Compound 23]	> 10 µM	> 10000 nM	
COc1ccc(CNC(=O)c2ccc(C3=NN4C(C(=O)c5ccc(F)cc5)Oc5ccccc5C4C3)cc2)cc1 (centres unmarked) [Compound 21]	> 10 µM	> 10000 nM	
O=C(NC1CCCCC1)c1ccc(C2=NN3C(C(=O)c4ccc(F)cc4)Oc4ccccc4C3C2)cc1 (centres unmarked) [Compound 1]	> 10 µM	1000 to 10000 nM	
N#Cc1ccc(C(=O)C2Oc3ccccc3C3CC(c4ccc(C(=O)NC5CCCC5)cc4)=NN23)cc1 (centres unmarked) [Compound 44, 4-[5-(4-Cyano-Benzoyl)-1,10b-Dihydro-5H-Pyrazolo[1,5-c][1,3]Benzoxazin-2-yl]-N-Cyclopentyl-Benzamide]	< 1 µM		< 1000 nM
CN(C)CCCN(C)C(=O)c1ccc(C2=NN3C(C(=O)c4ccc(F)cc4)Oc4ccccc4C3C2)cc1 (centres unmarked) [Compound 20]	1 to 10 µM	1000 to 10000 nM	
O=C(NCC1CCCCC1)c1ccc(C2=NN3C(C(=O)c4ccc(F)cc4)Oc4ccccc4C3C2)cc1 (centres unmarked) [Compound 2]	> 10 µM	> 10000 nM	
O=C(NCc1cccc(F)c1)c1ccc(C2=NN3C(C(=O)c4ccc(F)cc4)Oc4ccccc4C3C2)cc1 (centres unmarked) [Compound 10]	> 10 µM	> 10000 nM	
COc1ccc(N(C)C(=O)c2ccc(C3=NN4C(C(=O)c5ccc(F)cc5)Oc5ccccc5C4C3)cc2)cc1 (centres unmarked) [Compound 28]	< 1 µM	< 1000 nM	
C=CCN(C(=O)c1ccc(C2=NN3C(C(=O)c4ccc(F)cc4)Oc4ccccc4C3C2)cc1)C1CCCCC1 (centres unmarked) [Compound 37]	> 10 µM	1000 to 10000 nM	
CCCc1ccc(C(=O)C2Oc3ccccc3C3CC(c4ccc(C(=O)NC5CCCC5)cc4)=NN23)cc1 (centres unmarked) [Compound 45]	< 1 µM	< 1000 nM	
CC(C)CC(C)NC(=O)c1ccc(C2=NN3C(C(=O)c4ccc(F)cc4)Oc4ccccc4C3C2)cc1 (centres unmarked) [Compound 22]	> 10 µM	< 1000 nM	
O=C(NC1CCCC1)c1ccc(C2=NN3C(C(=O)c4ccc(Br)cc4)Oc4ccccc4C3C2)cc1 (centres unmarked) [Compound 6]	> 10 µM	< 1000 nM	
